Columns and labels:
[1] = Cytotoxicity against human MT4 cells assessed as reduction in cell viability; assay type: toxicity, cell-based
[2] = test system: Human immunodeficiency virus 1; experiment: Antiviral activity against HIV1 harboring Y188L mutant infected in human MT4 cells assessed as protection against virus-induced cytopathicity; assay type: functional, organism-based; conditions: Human immunodeficiency virus 1, MT4
[3] = test system: Human immunodeficiency virus 1; experiment: Antiviral activity against HIV1 harboring L100I mutant infected in human MT4 cells assessed as protection against virus-induced cytopathicity; assay type: functional, organism-based; conditions: Human immunodeficiency virus 1, MT4
[4] = test system: Human immunodeficiency virus 1; experiment: Antiviral activity against HIV1 harboring Y181C mutant infected in human MT4 cells assessed as protection against virus-induced cytopathicity; assay type: functional, organism-based; conditions: Human immunodeficiency virus 1, MT4
[5] = test system: Human immunodeficiency virus 1; experiment: Antiviral activity against wild type HIV1 IIIB infected in human MT4 cells assessed as protection against virus-induced cytopathicity; assay type: functional, organism-based; conditions: Human immunodeficiency virus 1, IIIB
[6] = Selectivity index, ratio of CC50 for cytotoxicity against human MT4 cells to EC50 for antiviral activity against wild type HIV1 IIIB infected in human MT4 cells; assay type: toxicity, cell-based; conditions: read-out: Ratio CC50/EC50
[7] = test system: Human immunodeficiency virus 1; experiment: Antiviral activity against HIV1 harboring K103 N mutant infected in human MT4 cells assessed as protection against virus-induced cytopathicity; assay type: functional, organism-based; conditions: Human immunodeficiency virus 1, MT4
[8] = test system: Human immunodeficiency virus 1; experiment: Antiviral activity against HIV1 harboring E138K mutant infected in human MT4 cells assessed as protection against virus-induced cytopathicity; assay type: functional, organism-based; conditions: Human immunodeficiency virus 1, MT4
[9] = molecular target: Human immunodeficiency virus type 1 reverse transcriptase (Human immunodeficiency virus 1, UniProt Q72547); experiment: Inhibition of wild type HIV-1 reverse transcriptase assessed as inhibition of biotin deoxyuridine triphosphate incorporation into […]

SMILES	CC50 [1]	EC50 [2]	EC50 [3]	EC50 [4]	EC50 [5]	selectivity ratio [6]	EC50 [7]	EC50 [8]	IC50 [9]
Cc1cccc(Sc2c(C3CC3)c(=O)[nH]c(=O)n2COCc2ccccc2)c1	32.5 µM	> 32.5 µM	0.17 µM	2.56 µM	0.028 µM	1160	2.76 µM	0.16 µM	–
Cc1cn([C@H]2C[C@H](N=[N+]=[N-])[C@@H](CO)O2)c(=O)[nH]c1=O [ZIDOVUDINE]	> 7.48 µM	0.029 µM	0.016 µM	0.02 µM	0.028 µM	> 309	0.026 µM	–	2.2 µM
O=c1[nH]c(=O)n(COCc2ccccc2)c(Sc2cccc(F)c2)c1C1CC1	38.8 µM	> 38.8 µM	0.25 µM	3.36 µM	0.025 µM	1520	2.99 µM	0.13 µM	0.04 µM
O=c1[nH]c(=O)n(COCc2ccccc2)c(Sc2cc(F)cc(F)c2)c1C1CC1	30 µM	> 30 µM	0.43 µM	4.27 µM	0.036 µM	842	3.01 µM	0.19 µM	0.1 µM
COc1ccc(Sc2c(C3CC3)c(=O)[nH]c(=O)n2COCc2ccccc2)cc1	44.6 µM	–	–	–	> 44.6 µM	< 1	–	–	–
O=c1[nH]c(=O)n(COCc2ccccc2)c(Sc2c(F)cccc2F)c1C1CC1	29 µM	> 29 µM	2.01 µM	> 29 µM	0.34 µM	89	> 29 µM	1.51 µM	0.72 µM
O=c1[nH]c(=O)n(COCc2ccccc2)c(Sc2cc(Cl)ccc2Cl)c1C1CC1	33.9 µM	7.92 µM	0.12 µM	0.51 µM	0.029 µM	1140	1.51 µM	0.07 µM	0.03 µM
COc1ccccc1Sc1c(C2CC2)c(=O)[nH]c(=O)n1COCc1ccccc1	33.6 µM	> 33.6 µM	0.61 µM	3.82 µM	0.17 µM	197	≥ 9.28 µM	0.83 µM	0.56 µM
O=c1[nH]c(=O)n(COCc2ccccc2)c(Sc2ccccc2Cl)c1C1CC1	27.3 µM	> 27.3 µM	0.63 µM	2.94 µM	0.053 µM	515	9.14 µM	0.43 µM	0.09 µM
O=c1[nH]c(=O)n(COCc2ccccc2)c(Sc2ccc(F)cc2)c1C1CC1	38.8 µM	> 40.8 µM	1.88 µM	6.4 µM	0.75 µM	53	> 40.8 µM	2.03 µM	–
Cc1cc(C)cc(Sc2c(C3CC3)c(=O)[nH]c(=O)n2COCc2ccccc2)c1	34 µM	3.75 µM	0.13 µM	1.03 µM	0.023 µM	1480	1.05 µM	0.14 µM	0.08 µM
O=c1[nH]c(=O)n(COCc2ccccc2)c(Sc2ccccc2F)c1C1CC1	34.7 µM	> 34.7 µM	0.45 µM	4.47 µM	0.043 µM	813	4.99 µM	0.35 µM	0.06 µM
O=c1[nH]c(=O)n(COCc2ccccc2)c(Sc2c(Cl)cccc2Cl)c1C1CC1	22.9 µM	> 22.9 µM	2.65 µM	> 22.9 µM	3.14 µM	7	> 22.9 µM	3.07 µM	4.23 µM
COc1cccc(OC)c1Sc1c(C2CC2)c(=O)[nH]c(=O)n1COCc1ccccc1	> 284 µM	> 284 µM	144 µM	> 284 µM	6.7 µM	> 40	> 284 µM	> 284 µM	–
COc1cccc(Sc2c(C3CC3)c(=O)[nH]c(=O)n2COCc2ccccc2)c1	33.1 µM	> 33.1 µM	0.27 µM	5.1 µM	0.085 µM	383	9.31 µM	0.49 µM	0.18 µM
O=c1[nH]c(=O)n(COCc2ccccc2)c(Sc2ccc(Br)cc2)c1C1CC1	25.9 µM	> 25.9 µM	4.05 µM	4.11 µM	6.18 µM	> 4	> 25.9 µM	9.8 µM	3.92 µM
COc1cc(OC)cc(Sc2c(C3CC3)c(=O)[nH]c(=O)n2COCc2ccccc2)c1	29.7 µM	> 29.7 µM	1.79 µM	9.63 µM	0.77 µM	38	> 29.7 µM	3.07 µM	–

SMILES	CC50 [1]	EC50 [2]	EC50 [3]	EC50 [4]	EC50 [5]	selectivity ratio [6]	EC50 [7]	EC50 [8]	IC50 [9]
Cc1ccc(Sc2c(C3CC3)c(=O)[nH]c(=O)n2COCc2ccccc2)cc1	31.8 µM	> 31.8 µM	2.05 µM	5.22 µM	2.59 µM	12	> 31.8 µM	10.2 µM	3.8 µM
O=c1[nH]c(=O)n(COCc2ccccc2)c(Sc2cccc(F)c2F)c1C1CC1	31.4 µM	> 31.4 µM	0.5 µM	> 31.4 µM	0.14 µM	224	> 3.84 µM	0.5 µM	0.24 µM
O=c1[nH]c(=O)n(COCc2ccccc2)c(Sc2ccc(F)cc2F)c1C1CC1	33.5 µM	> 33.5 µM	3.1 µM	≥ 9.44 µM	1.2 µM	28	> 33.5 µM	8.38 µM	1.8 µM
Cc1ccc(C)c(Sc2c(C3CC3)c(=O)[nH]c(=O)n2COCc2ccccc2)c1	74.8 µM	19.1 µM	0.19 µM	2.01 µM	0.071 µM	1050	4.16 µM	0.23 µM	0.08 µM
Cc1ccccc1Sc1c(C2CC2)c(=O)[nH]c(=O)n1COCc1ccccc1	30.1 µM	> 30.1 µM	1.07 µM	5.35 µM	0.15 µM	203	> 7.96 µM	0.89 µM	0.3 µM
O=c1[nH]c(=O)n(COCc2ccccc2)c(Sc2ccccc2)c1C1CC1	49.9 µM	> 30.7 µM	1.23 µM	9.83 µM	0.039 µM	1250	> 30.7 µM	2.79 µM	–
CC(C)c1c(Sc2cccc3ccccc23)n(COCc2ccccc2)c(=O)[nH]c1=O	34 µM	–	–	–	0.063 µM	565	–	–	–
Cc1ccc(Sc2c(C3CC3)c(=O)[nH]c(=O)n2COCc2ccccc2)c(C)c1	32.2 µM	> 32.2 µM	4.75 µM	> 32.2 µM	4.75 µM	7	> 32.2 µM	> 32.2 µM	5.39 µM
Cc1c(Sc2ccccc2)n(COCCO)c(=O)[nH]c1=O [HEPT]	740 µM	–	–	–	7 µM	106	–	–	–
O=c1[nH]c(=O)n(COCc2ccccc2)c(Sc2cc(Cl)cc(Cl)c2)c1C1CC1	28.7 µM	7.7 µM	0.4 µM	1.71 µM	0.073 µM	395	2.74 µM	0.45 µM	0.11 µM
COc1ccc(OC)c(Sc2c(C3CC3)c(=O)[nH]c(=O)n2COCc2ccccc2)c1	33.4 µM	> 33.4 µM	0.66 µM	5.68 µM	0.22 µM	150	> 33.4 µM	0.99 µM	–
O=c1[nH]c(=O)n(COCc2ccccc2)c(Sc2ccncc2)c1C1CC1	177 µM	> 167 µM	1.44 µM	17.8 µM	22.2 µM	8	24 µM	0.76 µM	0.63 µM
O=c1[nH]c(=O)n(COCc2ccccc2)c(Sc2ccccn2)c1C1CC1	167 µM	> 49.9 µM	0.39 µM	3.99 µM	0.17 µM	1000	6.12 µM	0.25 µM	0.11 µM
O=c1[nH]c(=O)n(COCc2ccccc2)c(Sc2cccc(Cl)c2Cl)c1C1CC1	27.4 µM	> 27.4 µM	2.34 µM	> 27.4 µM	0.8 µM	34	> 27.4 µM	0.67 µM	1.22 µM
COc1ccc(Sc2c(C3CC3)c(=O)[nH]c(=O)n2COCc2ccccc2)c(OC)c1	30.9 µM	–	–	–	> 30.9 µM	< 1	–	–	–
Cc1ccnc2c1NC(=O)c1cccnc1N2C1CC1 [NEVIRAPINE]	> 9.51 µM	> 9.51 µM	1.28 µM	7.04 µM	0.086 µM	–	5.33 µM	0.14 µM	–
O=c1[nH]c(=O)n(COCc2ccccc2)c(Sc2cccc3ccccc23)c1C1CC1	30.7 µM	> 177 µM	23.1 µM	24.5 µM	0.84 µM	36	> 177 µM	31.6 µM	–
